Test results as given in patent US20260209272A1 (priority 2022, published 2026).
Ends that are not written are not given here.

Experiments:
[1] = system: detached potato leaves; conditions: detached potato leaves treated with peptide plus water, no inoculum; 9 = clean leaves
[2] = system: Phytophthora infestans; type: in vivo
[3] = system: Phytophthora infestans zoospores
[4] = system: Phytophthora infestans; type: in vivo; remark: listed apart in the source

| Substance | score (1-9 scale), negative control without Phytophthora infestans inoculation [1] | protection against infection (in words), experiment repeated one week later ([2]; 400 uM, detached potato leaves) | average score (1-9 scale of late blight infection) ([2]; 6 days after Phytophthora infection, 50 sporangia/ul final, 4 drops of 10 ul per leaflet, 20 C, peptides 400 uM final, Mancozeb product diluted 1:1000, 9 = no symptoms, water positive control 6.56) | late blight lesions, peptide expressed in E. coli ([2]; detached leaf assay, Peptide V1 expressed in E. coli) | protection (in words), further repeat, first time ([2]; detached potato leaves) | protection (in words), further repeat, second time ([2]; detached potato leaves) | overall conclusion on efficacy ([2]; over all detached leaf experiments) | activity in the presence of other agrochemical active ingredients ([3]; FIG. 9 legend) | zoospore germination, peptide expressed in E. coli ([3]; Peptide V1 expressed in E. coli) | additive or synergistic effects with chemical fungicides ([3]; Peptide V1 with either Mancozeb or Fungonil (Chlorothalonil), germination assays) | protection among concentrations tested with and without LI-700 ([4]; large plants, 400 μM peptide) | severity of symptoms compared with non-treated control group, combination ([4]; plant assays, low dose Peptide V1 (25 μM) combined with low dose of Mancozeb) | severity of symptoms compared with non-treated control group ([4]; plant assays, low dose alone (Peptide V1 25 μM; low dose of Mancozeb)) | disease reduction ([4]; whole plant assays, 400 μM peptide concentration) |
| --- | --- | --- | --- | --- | --- | --- | --- | --- | --- | --- | --- | --- | --- | --- |
| RNTAQIP [Peptide V2, RNTAQIP] | 8.67 | – | – | – | – | – | – | – | – | – | – | – | – | – |
| RITAQIRL [Peptide V1] | – | almost as good at reducing infection | 8.37 | it allowed the development of minor late blight lesions, it is noteworthy that these lesions did not progress | some protection | excellent protection | consistently works well | retains its activity | completely inhibited zoospore germination | did not indicate any evidence of additive or synergistic effects | best protection | approximately the same | approximately the same | approximately 60% |
